Experimental data as given in ChEMBL document CHEMBL1201862, “PubChem BioAssay data set” (2004).
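Values below derive from 48-hour exposures of cells grown in 96-well plates, with endpoints linearly interpolated between the two concentrations bracketing the appropriate inhibition level. At the GI50, growth is halved.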 Activity calls are given as the source filed them. Cut-off read from the data, not from the text of the source: active = GI50 up to about 1.1 µM and inactive = higher. *1 amine or outer side, *2 acyl side, *3 side chain or, on linkers, in order; H or OH if unused. Where a SMILES comes first, the peptide text is derived from it. Bridges are numbered along the chain shown (N, C = ends). Roman numbers before positions name the chains, in order. [ ]: non-standard residue; d: D form. Actinocin(9to1) = Cc1c2oc3c(C)ccc(C(=O)[*:1])c3nc-2c(C(=O)[*:2])c(N)c1=O; NMeV = CN[CH](C(=O)O)C(C)C; Sar = CNCC(=O)O

What was measured:
Assay in all cases: NCI-60 cell line screen, 48 h
CAKI-1 = tested on: CAKI-1
RXF 393 = tested on: RXF 393
A498 = tested on: A498
DU-145 = tested on: DU-145
SK-MEL-28 = tested on: SK-MEL-28
SNB-19 = tested on: SNB-19
COLO 205 = tested on: COLO 205
HCC 2998 = tested on: HCC 2998
NCI-H23 = tested on: NCI-H23
EKVX = tested on: EKVX
LOX IMVI = tested on: LOX IMVI
NCI-H226 = tested on: NCI-H226
A549 = tested on: A549
HL-60 = tested on: HL-60
HT-29 = tested on: HT-29
MOLT-4 = tested on: MOLT-4
SR = tested on: SR
Malme-3M = tested on: Malme-3M
SF-295 = tested on: SF-295
OVCAR-4 = tested on: OVCAR-4

Compound	GI50 (CAKI-1)	GI50 (RXF 393)	GI50 (A498)	GI50 (DU-145)	GI50 (SK-MEL-28)	GI50 (SNB-19)	GI50 (COLO 205)	GI50 (HCC 2998)	GI50 (NCI-H23)	GI50 (EKVX)	GI50 (LOX IMVI)	GI50 (NCI-H226)	GI50 (A549)	GI50 (HL-60)	GI50 (HT-29)	GI50 (MOLT-4)	GI50 (SR)	GI50 (Malme-3M)	GI50 (SF-295)	GI50 (OVCAR-4)
CCOC(=O)NN(C(=O)OCC)C(=C(C1=CCCCC1)N1CCOCC1)N(NC(=O)OCC)C(=O)OCC	> 100 µM (inactive)	> 100 µM (inactive)	> 100 µM (inactive)	> 100 µM (inactive)	> 100 µM (inactive)	> 100 µM (inactive)	> 100 µM (inactive)	> 100 µM (inactive)	> 100 µM (inactive)	> 100 µM (inactive)	> 100 µM (inactive)	> 100 µM (inactive)	> 100 µM (inactive)	> 100 µM (inactive)	> 100 µM (inactive)	> 100 µM (inactive)	> 100 µM (inactive)	> 100 µM (inactive)	> 100 µM (inactive)	
CC(=O)NC1C(OCc2ccccc2)OC(CO)C(O)C1OCC(=O)N[C@@H](C)C(=O)N[C@H](CCC(=O)NCCCNc1ccc([N+](=O)[O-])c2[nH]c3ccccc3c(=O)c12)C(N)=O (some centres undefined)	> 100 µM (inactive)	63.5 µM (inactive)	> 100 µM (inactive)	60.8 µM (inactive)	> 100 µM (inactive)	37.4 µM (inactive)	> 100 µM (inactive)	49.3 µM (inactive)	> 100 µM (inactive)	43 µM (inactive)	52.6 µM (inactive)	25.5 µM (inactive)	> 100 µM (inactive)	> 100 µM (inactive)	36.8 µM (inactive)		> 100 µM (inactive)	27.5 µM (inactive)	56.6 µM (inactive)	34 µM (inactive)
COC1CC(OC2CCC3(C)C(=CCC4C3C(OC(C)=O)C(OC(=O)CC(C)C)C3(C)C(C(C)=O)CCC43O)C2)OC(C)C1OC1CC(OC)C(OC2CC(OC)C(OC3OC(C)C(O)C(OC)C3O)C(C)O2)C(C)O1 (centres undefined)	44 µM (inactive)	20.1 µM (inactive)	> 100 µM (inactive)	40.6 µM (inactive)	36 µM (inactive)	86.5 µM (inactive)	22 µM (inactive)	24.4 µM (inactive)	34 µM (inactive)	34.8 µM (inactive)	20.2 µM (inactive)	30.5 µM (inactive)	37.2 µM (inactive)	14.9 µM (inactive)	19.9 µM (inactive)	23.8 µM (inactive)	31.5 µM (inactive)	43 µM (inactive)	33 µM (inactive)	39.5 µM (inactive)
CCCCC(C(=O)NCCNC(=O)CCC(=O)N(C)O)C(=O)NCCNC(=O)CCC(=O)N(C)O	> 100 µM (inactive)	> 100 µM (inactive)	> 100 µM (inactive)	> 100 µM (inactive)	> 100 µM (inactive)	> 100 µM (inactive)	> 100 µM (inactive)	> 100 µM (inactive)	> 100 µM (inactive)	> 100 µM (inactive)	> 100 µM (inactive)	> 100 µM (inactive)	> 100 µM (inactive)	> 100 µM (inactive)	> 100 µM (inactive)	> 100 µM (inactive)	> 100 µM (inactive)	> 100 µM (inactive)	> 100 µM (inactive)	> 100 µM (inactive)
Cc1cc2cc3c(Cl)c(CCCl)c(C)nc3cc2c(Cl)c1CCCl		4.33 µM (inactive)	19.2 µM (inactive)	21.6 µM (inactive)	18 µM (inactive)	16.4 µM (inactive)	16.6 µM (inactive)	17.5 µM (inactive)	21.8 µM (inactive)	2.87 µM (inactive)	15.2 µM (inactive)	3.73 µM (inactive)	17.8 µM (inactive)	11.5 µM (inactive)	18.5 µM (inactive)	16 µM (inactive)	11.3 µM (inactive)	20.8 µM (inactive)	17.2 µM (inactive)	18.1 µM (inactive)
COC1(C)CP(=O)(OC(C)C)CC(C)=C1Cl (centres undefined)	17 µM (inactive)	21.4 µM (inactive)	9.42 µM (inactive)	19.3 µM (inactive)	21.7 µM (inactive)	28.4 µM (inactive)	14.5 µM (inactive)	27 µM (inactive)	10.7 µM (inactive)	14.6 µM (inactive)	11.7 µM (inactive)	12.5 µM (inactive)	17.1 µM (inactive)	10.9 µM (inactive)	12.3 µM (inactive)	22.2 µM (inactive)	7.19 µM (inactive)	17.3 µM (inactive)	11.8 µM (inactive)	15 µM (inactive)
COc1cc(O)c2c(=O)cc(C3(OC(C)=O)C=CC(OC4OC(CO)C(O)C(O)C4O)C=C3)oc2c1 (centres undefined)	> 100 µM (inactive)	> 100 µM (inactive)	> 100 µM (inactive)	> 100 µM (inactive)	> 100 µM (inactive)	> 100 µM (inactive)	> 100 µM (inactive)	> 100 µM (inactive)	> 100 µM (inactive)	> 100 µM (inactive)	> 100 µM (inactive)	> 100 µM (inactive)	> 100 µM (inactive)	> 100 µM (inactive)	> 100 µM (inactive)	> 100 µM (inactive)	> 100 µM (inactive)	> 100 µM (inactive)	> 100 µM (inactive)	> 100 µM (inactive)
NC(=S)N/N=C\CC(O)(C(F)(F)F)C(F)(F)F	> 10 µM (inactive)	> 10 µM (inactive)	> 10 µM (inactive)	> 10 µM (inactive)	> 10 µM (inactive)	> 10 µM (inactive)	> 10 µM (inactive)	> 10 µM (inactive)	> 10 µM (inactive)	> 10 µM (inactive)	> 10 µM (inactive)	> 10 µM (inactive)	> 10 µM (inactive)	> 10 µM (inactive)	> 10 µM (inactive)	> 10 µM (inactive)	> 10 µM (inactive)	> 10 µM (inactive)	> 10 µM (inactive)	> 10 µM (inactive)
CC(C#N)N(CCc1ccccc1)C(=O)c1ccccc1 (centres undefined)	> 100 µM (inactive)	> 100 µM (inactive)	> 100 µM (inactive)	> 100 µM (inactive)		> 100 µM (inactive)	> 100 µM (inactive)	> 100 µM (inactive)	> 100 µM (inactive)	> 100 µM (inactive)	> 100 µM (inactive)	> 100 µM (inactive)	> 100 µM (inactive)	> 100 µM (inactive)	> 100 µM (inactive)	47.6 µM (inactive)	> 100 µM (inactive)	> 100 µM (inactive)	> 100 µM (inactive)	> 100 µM (inactive)
NC(=S)N/N=C1/CCCC2CCCC[C@@H]12 (some centres undefined)	> 100 µM (inactive)	> 100 µM (inactive)	> 100 µM (inactive)	> 100 µM (inactive)	> 100 µM (inactive)	> 100 µM (inactive)	> 100 µM (inactive)	> 100 µM (inactive)	> 100 µM (inactive)	35 µM (inactive)	> 100 µM (inactive)	> 100 µM (inactive)	> 100 µM (inactive)	> 100 µM (inactive)	> 100 µM (inactive)	> 100 µM (inactive)	> 100 µM (inactive)	> 100 µM (inactive)	> 100 µM (inactive)	> 100 µM (inactive)
C=C1c2nc3ccccc3n2C=C(c2ccccc2)N1c1ccc([N+](=O)[O-])cc1	9.2 µM (inactive)	3.01 µM (inactive)	8.38 µM (inactive)	6.92 µM (inactive)	24.6 µM (inactive)	5.65 µM (inactive)	6.52 µM (inactive)	3.49 µM (inactive)	9.38 µM (inactive)	4.85 µM (inactive)	5.36 µM (inactive)	5.5 µM (inactive)	2.31 µM (inactive)	7.01 µM (inactive)	3.47 µM (inactive)	29.2 µM (inactive)	4.95 µM (inactive)	3.01 µM (inactive)	3.37 µM (inactive)	0.324 µM (active)
Cc1c2oc3c(C)ccc(C(=O)NC4C(=O)NC(Cc5ccccc5)C(=O)N5CCCC5C(=O)N(C)CC(=O)N(C)C(C(C)C)C(=O)OC4C)c3nc-2c(C(=O)NC2C(=O)NC(Cc3ccccc3)C(=O)N3CCCC3C(=O)N(C)CC(=O)N(C)C(C(C)C)C(=O)OC2C)c(N)c1=O (centres undefined) (I: TFP[Sar][NMeV] / II: TFP[Sar][NMeV]; ester I:1-I:C, II:1-II:C; linker I:N-II:N via Actinocin(9to1); configuration not given here)	0.00151 µM (active)	0.0135 µM (active)	0.00204 µM (active)	< 0.001 µM (active)	< 0.001 µM (active)		< 0.001 µM (active)	< 0.001 µM (active)	< 0.001 µM (active)	0.136 µM (active)	< 0.001 µM (active)	< 0.001 µM (active)	< 0.001 µM (active)	< 0.001 µM (active)	< 0.001 µM (active)	< 0.001 µM (active)	< 0.001 µM (active)	< 0.001 µM (active)	< 0.001 µM (active)	0.0171 µM (active)
COc1ccc(CC2CCc3nc(N)nc(N)c3C2)cc1OC (centres undefined)	2.29 µM (inactive)	0.0292 µM (active)	17.3 µM (inactive)	0.681 µM (active)	36.4 µM (inactive)		2.94 µM (inactive)	0.687 µM (active)	0.564 µM (active)	2.01 µM (inactive)	0.065 µM (active)	12.1 µM (inactive)	0.0481 µM (active)	14.8 µM (inactive)	1.79 µM (inactive)	0.522 µM (active)	3.7 µM (inactive)	0.83 µM (active)	0.168 µM (active)	> 43.3 µM (inactive)
